The source of these data is patent publication US9751887B2, “Imidazo[1,2-b]pyridazine derivatives as kinase inhibitors” (Daiichi Sankyo Company, Limited, priority 2012, dated 2017).

Assay [1] concerns the target T1, ROS1 (Homo sapiens, UniProt P08922).
T1 construct: purchased Carna Biosciences 08-163
The assay is described as follows: ROS1 kinase inhibitory activity evaluation (mobility shift, EZ Reader II). Format: biochemical. Particulars: ROS1 25 pg/μL, FL-Peptide 22 substrate, three separate measurements. As to the method:
Next, a substrate reaction solution was prepared. […] Then, the reaction stop solution was added thereto at a concentration of 40 μL/well. Substrate phosphorylation intensity was measured using EZ Reader II (Caliper Life Sciences).

Assay [2] deals with T1, ROS1. The experiment in a line: ROS1 autophosphorylation inhibitory activity evaluation (ADP-Glo). Format: biochemical. Conditions: 200 nM inactive ROS1, ATP 1 mM, 25° C. 1.5 hours, ADP generated, four separate measurements. As to the method: Fifty mM HEPES (pH 7.5), 10 mM MgCl2, 0.01% Brij-58, and 2.5 mM DTT were mixed to prepare an enzymatic reaction solution. […] ATP (final concentration: 1 mM) was further added thereto at a concentration of 2.5 μL/well. The resulting plate was left standing at 25° C. for 1.5 hours to cause enzymatic reaction. After the completion of enzymatic reaction, ADP-Glo Reagent-1 (Promega, V9103) was added thereto at a concentration of 2.5 μL/well, and the plate was left standing at room temperature for 60 minutes. Then, ADP-Glo Reagent-2 (Promega) was added thereto at a concentration of 5 μL/well, and the plate was left standing at room temperature for 60 minutes. The amount of ADP generated by the autophosphorylation of ROS1 was measured using EnVision (PerkinElmer Japan). The amount of ADP generated in four separate measurements was defined as the autophosphorylation intensity of ROS1. IC50 values were calculated by curve fitting using GraphPad Prism version 4 (GraphPad software).
On the technique in general: ADP-Glo turns the ADP formed in a reaction into a luminescent signal.

Assay [3] relates to HCC78 cells having ROS1 fusion gene. The experiment in a line: HCC78 cell growth assay (CellTiter-Glo). Format: cell-based. Conditions: Homo sapiens, 72 hours culture, 2% FBS medium, luminescence, four separate measurements, read-out: growth inhibitory effect on HCC78 cells having ROS1 fusion gene IC50. As to the method: Each compound of the present invention was assayed for its cell growth inhibitory effect using HCC78 cells having ROS1 fusion gene.
The suspension was dispensed at a concentration of 100 μL/well to a 96-well culture plate for cell culture (SUMITOMO BAKELITE, Cat No MS-0096S) (hereinafter, referred to as an assay plate). […] In this context, the final concentration of DMSO was set to 0.4%. Then, the cells were cultured for 72 hours in a CO2 incubator.
CellTiter-Glo Luminescent Cell Viability Assay reagent (Promega, Cat No G7571) was dispensed at a concentration of 100 μL/well to the assay plate. The contents in each well were reacted at room temperature for 10 minutes while stirred using a plate mixer. […] The luminescence intensity of each well was measured using EnVision. The luminescence intensity of each well obtained in four separate measurements was defined as the number of cells. IC50 values were calculated by curve fitting using GraphPad Prism version 4.
A general note: In ATP-based viability assays light output follows the ATP content of the culture.

Where a name gives a salt, the structure may show the parent alone. Read-outs that look alike come from different tables or passages of the source.

T1 sequence (P08922 28-2347): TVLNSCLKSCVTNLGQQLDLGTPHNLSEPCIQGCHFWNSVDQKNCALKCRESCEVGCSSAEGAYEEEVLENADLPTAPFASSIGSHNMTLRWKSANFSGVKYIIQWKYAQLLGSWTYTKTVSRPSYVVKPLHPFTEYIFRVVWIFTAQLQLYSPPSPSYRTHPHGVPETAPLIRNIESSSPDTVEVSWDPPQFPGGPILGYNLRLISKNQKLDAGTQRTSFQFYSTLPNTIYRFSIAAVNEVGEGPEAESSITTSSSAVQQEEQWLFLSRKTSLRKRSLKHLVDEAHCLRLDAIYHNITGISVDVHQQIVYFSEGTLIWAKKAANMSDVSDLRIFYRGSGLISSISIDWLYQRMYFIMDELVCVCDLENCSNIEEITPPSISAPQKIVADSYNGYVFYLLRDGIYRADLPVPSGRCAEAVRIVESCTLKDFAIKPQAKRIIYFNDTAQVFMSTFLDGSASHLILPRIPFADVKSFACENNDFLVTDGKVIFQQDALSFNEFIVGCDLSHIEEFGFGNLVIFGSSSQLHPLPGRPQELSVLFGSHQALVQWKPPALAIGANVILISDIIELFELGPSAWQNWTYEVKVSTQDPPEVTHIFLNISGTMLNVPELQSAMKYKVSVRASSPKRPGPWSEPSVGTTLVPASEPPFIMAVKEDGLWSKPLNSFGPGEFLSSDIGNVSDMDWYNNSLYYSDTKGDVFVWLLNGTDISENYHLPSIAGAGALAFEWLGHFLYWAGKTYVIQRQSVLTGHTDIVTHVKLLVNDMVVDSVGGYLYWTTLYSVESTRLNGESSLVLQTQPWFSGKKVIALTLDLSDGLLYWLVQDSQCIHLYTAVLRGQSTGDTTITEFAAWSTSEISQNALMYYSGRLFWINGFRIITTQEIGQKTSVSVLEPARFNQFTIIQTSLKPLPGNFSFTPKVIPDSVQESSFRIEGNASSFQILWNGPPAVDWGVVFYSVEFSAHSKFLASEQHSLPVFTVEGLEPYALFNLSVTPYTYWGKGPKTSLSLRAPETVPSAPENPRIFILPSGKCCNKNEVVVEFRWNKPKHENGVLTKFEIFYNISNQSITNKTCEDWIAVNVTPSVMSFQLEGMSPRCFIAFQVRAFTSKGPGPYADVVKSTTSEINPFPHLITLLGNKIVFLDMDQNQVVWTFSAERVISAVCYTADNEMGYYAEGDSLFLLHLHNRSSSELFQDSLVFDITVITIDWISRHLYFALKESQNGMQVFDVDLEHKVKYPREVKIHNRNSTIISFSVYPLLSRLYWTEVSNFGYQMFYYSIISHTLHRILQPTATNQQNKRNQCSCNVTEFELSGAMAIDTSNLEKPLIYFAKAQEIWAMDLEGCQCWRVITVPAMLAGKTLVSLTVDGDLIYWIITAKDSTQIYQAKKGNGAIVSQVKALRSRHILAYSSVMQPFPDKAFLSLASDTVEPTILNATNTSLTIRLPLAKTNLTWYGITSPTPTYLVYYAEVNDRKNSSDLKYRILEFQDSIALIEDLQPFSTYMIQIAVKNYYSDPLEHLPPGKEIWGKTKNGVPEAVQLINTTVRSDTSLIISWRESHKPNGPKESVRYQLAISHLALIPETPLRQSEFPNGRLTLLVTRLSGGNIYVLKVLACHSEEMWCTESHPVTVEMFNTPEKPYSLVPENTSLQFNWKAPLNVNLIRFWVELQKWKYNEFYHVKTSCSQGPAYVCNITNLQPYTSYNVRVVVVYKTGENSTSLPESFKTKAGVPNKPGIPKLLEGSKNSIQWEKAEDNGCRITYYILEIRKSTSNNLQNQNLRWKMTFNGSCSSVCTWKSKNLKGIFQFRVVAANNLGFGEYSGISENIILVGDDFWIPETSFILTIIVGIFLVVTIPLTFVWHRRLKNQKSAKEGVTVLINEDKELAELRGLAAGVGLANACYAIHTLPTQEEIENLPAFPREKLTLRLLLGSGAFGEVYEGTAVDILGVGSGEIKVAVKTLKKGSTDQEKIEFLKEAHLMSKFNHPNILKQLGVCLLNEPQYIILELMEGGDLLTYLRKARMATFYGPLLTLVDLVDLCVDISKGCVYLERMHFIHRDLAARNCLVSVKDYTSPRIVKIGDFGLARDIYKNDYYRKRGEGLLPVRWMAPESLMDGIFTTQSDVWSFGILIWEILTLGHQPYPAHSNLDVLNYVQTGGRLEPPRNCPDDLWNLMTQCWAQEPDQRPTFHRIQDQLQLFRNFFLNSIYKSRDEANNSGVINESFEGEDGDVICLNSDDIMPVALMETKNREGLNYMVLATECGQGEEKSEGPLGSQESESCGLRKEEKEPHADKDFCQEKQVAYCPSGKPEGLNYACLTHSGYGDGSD

By IC50 is commonly meant the point on the concentration scale where inhibition reaches its midpoint. In the case of `C[C@@H](Nc1ccc2ncc(-c3ccc(OC[C@@H]4CC(F)CN4)cc3)n2n1)c1cccc(F)c1` (stereo in doubt) [Example 33, N-[(1R)-1-(3-Fluorophenyl)ethyl]-3-[4-[[(2S,4S)-4-fluoropyrrolidin-2-yl]methoxy]phenyl]imidazo[1,2-b]pyridazin-6-amine], the IC50 was less than 1 nM at ROS1 [1]; less than 20 nM against ROS1 [2]; 20 to 100 nM in assay [3] (HCC78, 72 h).

On to `CC(Oc1ccc2ncc(-c3ccc(N4C[C@@H](N)CC4=O)cc3)n2n1)c1cncc(Cl)c1` (stereo partly shown) [Example 112], for which the IC50 on ROS1 [1] is 1 to 10 nM; against ROS1 [2], less than 20 nM; in assay [3] (HCC78, 72 h), 20 to 100 nM.

For `CC(Oc1ccc2ncc(-c3ccc(N4C[C@@H](N)CC4=O)cc3)n2n1)c1cc(F)cnc1F` (stereo partly drawn) [Example 134, (4S)-4-Amino-1-[4-[6-[(1-(2,5-difluoro-3-pyridyl)ethoxy]imidazo[1,2-b]pyridazin-3-yl]phenyl]pyrrolidin-2-one hydrochloride], the IC50 at ROS1 [1] is 1 to 10 nM.

Turning to `CN(Cc1cccc(F)c1F)c1ccc2ncc(-c3ccc(N4C[C@@H](N)CC4=O)cc3)n2n1` [Example 98, (4S)-4-Amino-1-[4-[6-[(2,3-difluorophenyl)methyl-methylamino]imidazo[1,2-b]pyridazin-3-yl]phenyl]pyrrolidin-2-one], the IC50 on ROS1 [1] was 1 to 10 nM; against ROS1 [2], less than 20 nM; in assay [3] (HCC78, 72 h), 20 to 100 nM.

For the compound `C[C@@H](Nc1ccc2ncc(-c3cccc(OCCN)c3)n2n1)c1cccc(F)c1` [Example 67, 3-[3-(2-Aminoethoxy)phenyl]-N-[(1R)-1-(3-fluorophenyl)ethyl]imidazo[1,2-b]pyridazin-6-amine], the IC50 at ROS1 [1] was 1 to 10 nM; on ROS1 [2] it was less than 20 nM; in assay [3] (HCC78, 72 h), 20 to 100 nM.

Regarding `CCN(Cc1ccccc1)c1ccc2ncc(-c3ccc(N4C[C@@H](N)CC4=O)cc3)n2n1` [Example 95, (4S)-4-Amino-1-[4-[6-[benzo(ethyl)amino]imidazo[1,2-b]pyridazin-3-yl]phenyl]pyrrolidin-2-one], the IC50 at ROS1 [1] lay in the range of 1 to 10 nM; on ROS1 [2], 20 to 100 nM; in assay [3] (HCC78, 72 h), 100 to 600 nM.

`NCCOc1ccc(-c2cnc3ccc(OCc4cccc(F)c4)nn23)cc1` [Example 14, 2-[4-[6-[(3-Fluorophenyl)methoxy]imidazo[1,2-b]pyridazin-3-yl]phenoxy]ethanamine]: the IC50 on ROS1 [1] was 1 to 10 nM; against ROS1 [2], 20 to 100 nM; in assay [3] (HCC78, 72 h) it was 100 to 600 nM.

As to `c1ccc(CNc2ccc3ncc(-c4cccc(OC[C@@H]5CCCN5)c4)n3n2)cc1` [Example 2, N-Benzyl-3-[3-[[(2S)-pyrrolidin-2-yl]methoxy]phenyl]imidazo[1,2-b]pyridazin-6-amine], the half-maximal inhibitory concentration (IC50) at ROS1 [1] lay within 1 to 10 nM; against ROS1 [2], 20 to 100 nM; in assay [3] (HCC78, 72 h) it was 100 to 600 nM.

In the case of `C[C@@H](Nc1ccc2ncc(-c3cc(F)cc(OC[C@@H]4CCN4)c3)n2n1)c1cccc(F)c1` [Example 62, 3-[3-[[(2S)-Azetidin-2-yl]methoxy]-5-fluoro-phenyl]-N-[(1R)-1-(3-fluorophenyl)ethyl]imidazo[1,2-b]pyridazin-6-amine], the IC50 is less than 1 nM at ROS1 [1]; 20 to 100 nM at ROS1 [2]; 20 to 100 nM in assay [3] (HCC78, 72 h).

For the compound `C[C@@H](Nc1ccc2ncc(-c3cccc(OCCCN)c3)n2n1)c1cccc(F)c1` [Example 68, 3-[3-(3-Aminopropoxy)phenyl]-N-[(1R)-1-(3-fluorophenyl)ethyl]imidazo[1,2-b]pyridazin-6-amine], the half-maximal inhibitory concentration (IC50) at ROS1 [1] is 1 to 10 nM; against ROS1 [2], less than 20 nM; in assay [3] (HCC78, 72 h), 20 to 100 nM.

Consider `CN(Cc1cncc(F)c1)c1ccc2ncc(-c3ccc(N4CC(C)(N)CC4=O)cc3)n2n1` (single isomer, unassigned) [Example 125, 4-Amino-1-[4-[6-[(5-fluoro-3-pyridyl)methyl-methylamino]imidazo[1,2-b]pyridazin-3-yl]phenyl]-4-methylpyrrolidin-2-one], for which the IC50 at ROS1 [2] fell in the range of 20 to 100 nM.

In the case of `C[C@@H](Nc1ccc2ncc(-c3ccc(OC4CCCC4N)cc3)n2n1)c1cccc(F)c1` (single isomer, unassigned) [Example 32], the figures for the IC50 on ROS1 [1] and against ROS1 [2] were less than 1 nM and less than 20 nM, respectively.

For `C[C@@H](Nc1ccc2ncc(-c3ccc(OC[C@@H]4CCNC4)cc3)n2n1)c1cccc(F)c1` [Example 23, N-[(1R)-1-(3-Fluorophenyl)ethyl]-3-[4-[[(3R)-pyrrolidin-3-yl]methoxy]phenyl]imidazo[1,2-b]pyridazin-6-amine], the half-inhibitory concentration (IC50) is less than 1 nM on ROS1 [1]; less than 20 nM at ROS1 [2]; 100 to 600 nM in assay [3] (HCC78, 72 h).

On to `N#Cc1cccc(COc2ccc3ncc(-c4ccc(N5C[C@@H](N)CC5=O)cc4)n3n2)c1` [Example 101, 3-[[3-[4-[(4S)-4-Amino-2-oxopyrrolidin-1-yl]phenyl]imidazo[1,2-b]pyridazin-6-yl]oxymethyl]benzonitrile], for which the IC50 at ROS1 [1] is 1 to 10 nM; at ROS1 [2], 20 to 100 nM; in assay [3] (HCC78, 72 h) it was 100 to 600 nM.

For `CN[C@H]1CC(=O)N(c2ccc(-c3cnc4ccc(O[C@H](C)c5cncc(F)c5)nn34)cc2)C1` [Example 108, (4S)-1-[4-[6-[(1R)-1-(5-Fluoro-3-pyridyl)ethoxy]imidazo[1,2-b]pyridazin-3-yl]phenyl]-4-(methylamino)pyrrolidin-2-one], the IC50 fell in the range of 1 to 10 nM at ROS1 [1]; 20 to 100 nM against ROS1 [2]; 20 to 100 nM in assay [3] (HCC78, 72 h).

For `CC(Oc1ccc2ncc(-c3ccc(N4C[C@@H](N)CC4=O)cc3)n2n1)c1cc(Cl)n(C)n1` (stereo partly drawn) [Example 113, (4S)-4-Amino-1-[4-[6-[1-(5-chloro-1-methylpyrazol-3-yl)ethoxy]imidazo[1,2-b]pyridazin-3-yl]phenyl]pyrrolidin-2-one], the IC50 at ROS1 [1] was 1 to 10 nM; against ROS1 [2], less than 20 nM; in assay [3] (HCC78, 72 h), less than 20 nM.

As to `C[C@@H](Nc1ccc2ncc(-c3cccc(OC[C@@H]4CCN4)c3)n2n1)c1cccc(F)c1` [Example 57, 3-[3-[[(2S)-Azetidin-2-yl]methoxy]phenyl]-N-[(1R)-1-(3-fluorophenyl)ethyl]imidazo[1,2-b]pyridazin-6-amine], the 50% inhibitory concentration (IC50) on ROS1 [1] lay within 1 to 10 nM; on ROS1 [2] it was 20 to 100 nM; in assay [3] (HCC78, 72 h), 20 to 100 nM.

For `C[C@@H](Oc1ccc2ncc(-c3ccc(OCC4CCNCC4)cc3)n2n1)c1cccc(F)c1` [Example 17, 6-[(1R)-1-(3-Fluorophenyl)ethoxy]-3-[4-(4-piperidylmethoxy)phenyl]imidazo[1,2-b]pyridazine], the IC50 is 1 to 10 nM at ROS1 [1]; 20 to 100 nM against ROS1 [2]; 100 to 600 nM in assay [3] (HCC78, 72 h).

With `CC(Oc1ccc2ncc(-c3ccc(N4C[C@@H](N)CC4=O)cc3)n2n1)c1cc(F)cnc1F` (stereo partly shown) [Example 106], the half-inhibitory concentration (IC50) was less than 1 nM at ROS1 [1]; less than 20 nM against ROS1 [2]; less than 20 nM in assay [3] (HCC78, 72 h).

The compound `CN(Cc1cccc(F)c1)c1ccc2ncc(-c3ccc(N4CC(C)(N)CC4=O)cc3)n2n1` (single isomer, unassigned) [Example 86, 4-Amino-1-[4-[6-[(3-fluorophenyl)methyl-methylamino]imidazo[1,2-b]pyridazin-3-yl]phenyl]-4-methylpyrrolidin-2-one] gave an IC50 against ROS1 [2] of less than 20 nM.

In the case of `C[C@@H](Oc1ccc2ncc(-c3ccc(N4C[C@@H](N)CC4=O)cc3)n2n1)c1cccc(F)c1` [Example 133, (4S)-4-Amino-1-[4-[6-[(1R)-1-(3-fluorophenyl)ethoxy]imidazo[1,2-b]pyridazin-3-yl]phenyl]pyrrolidin-2-one hydrochloride], the IC50 against ROS1 [2] is less than 20 nM.

On to `C[C@@H](Oc1ccc2ncc(-c3ccc(OC[C@@H]4CCCN4)cc3)n2n1)c1cccc(F)c1` [Example 16, 6-[(1R)-1-(3-Fluorophenyl)ethoxy]-3-[4-[[(2S)-pyrrolidin-2-yl]methoxy]phenyl]imidazo[1,2-b]pyridazine], for which the IC50 on ROS1 [1] was less than 1 nM; in assay [3] (HCC78, 72 h), 20 to 100 nM.

In the case of `CN(Cc1cccc(Cl)c1)c1ccc2ncc(-c3ccc(N4CC(N)CC4=O)cc3)n2n1` (stereo not shown) [Example 96, 4-Amino-1-[4-[6-[(3-chlorophenyl)methyl-methylamino]imidazo[1,2-b]pyridazin-3-yl]phenyl]pyrrolidin-2-one], in assay [3] (HCC78), the IC50 lay in the range of 100 to 600 nM.

Take `CC(N)COc1ccc(-c2cnc3ccc(N[C@H](C)c4cccc(F)c4)nn23)cc1` (stereo partly drawn) [Example 35, 3-[4-(2-Aminopropoxy)phenyl]-N-[(1R)-1-(3-fluorophenyl)ethyl]imidazo[1,2-b]pyridazin-6-amine]: the IC50 in assay [3] (HCC78, 72 h) is less than 20 nM.
